The values that follow come from patent US10647677B2, “Analogues of hydroxychloroquine (HCQ) without retinal toxicity” (Inoviem Scientific, priority 2015, dated 2020).

Entries after “also recorded” stand apart in the source; their conditions may differ.

In assay [1] the test system is MRL/Ipr mice (lupus model). Briefly: Development of the disease: dermatitis in MRL/Ipr mice. The format is in vivo. Conditions: 10 mg/kg, compared to carrier and HCQ 10 mg/kg (FIG. 2). The protocol: The MRL/MPJ-Fas (Ipr) (MRL-Ipr) and C57Bl/6 mice for the behavioral experiments are from the Jackson Laboratory and are randomly distributed into 5 groups. All animals were kept at controlled temperature (23° C.+/−1° C.) with a 12-hour day/night cycle, water and ad libitum food.
Mice received the specified dose of hydroxychloroquine (Tokyo Chemical Industry), CB137 or carrier intraperitoneally (IP), every 24 hours and for 5 days over a 10-week period. With regard to the MRL/Ipr mice, treatment started at 7 weeks of age, and ended at 23 weeks of age where a significant proportion of untreated mice died. With regard to the C57B1/6 mice, the same treatment program was carried out and the mice were sacrificed after […]. HCQ and CB137 were each freshly prepared in physiological saline and injected into the mice in a final volume of 50 μL. The MRL/Ipr mice were examined daily for skin lesions. For histological analysis, the animals were sacrificed and the tissues were rapidly dissected and immediately post-fixed.
Dermatitis was less common in mice treated with CB137 10 mg/kg compared to control (carrier) mice and HCQ treated mice (10 mg/kg (FIG. 2).

For a further assay, the target named is T1, myeloperoxidase (MPO) (Homo sapiens, UniProt P05164).
T1 construct: purchased
T1 sequence (P05164 49-745): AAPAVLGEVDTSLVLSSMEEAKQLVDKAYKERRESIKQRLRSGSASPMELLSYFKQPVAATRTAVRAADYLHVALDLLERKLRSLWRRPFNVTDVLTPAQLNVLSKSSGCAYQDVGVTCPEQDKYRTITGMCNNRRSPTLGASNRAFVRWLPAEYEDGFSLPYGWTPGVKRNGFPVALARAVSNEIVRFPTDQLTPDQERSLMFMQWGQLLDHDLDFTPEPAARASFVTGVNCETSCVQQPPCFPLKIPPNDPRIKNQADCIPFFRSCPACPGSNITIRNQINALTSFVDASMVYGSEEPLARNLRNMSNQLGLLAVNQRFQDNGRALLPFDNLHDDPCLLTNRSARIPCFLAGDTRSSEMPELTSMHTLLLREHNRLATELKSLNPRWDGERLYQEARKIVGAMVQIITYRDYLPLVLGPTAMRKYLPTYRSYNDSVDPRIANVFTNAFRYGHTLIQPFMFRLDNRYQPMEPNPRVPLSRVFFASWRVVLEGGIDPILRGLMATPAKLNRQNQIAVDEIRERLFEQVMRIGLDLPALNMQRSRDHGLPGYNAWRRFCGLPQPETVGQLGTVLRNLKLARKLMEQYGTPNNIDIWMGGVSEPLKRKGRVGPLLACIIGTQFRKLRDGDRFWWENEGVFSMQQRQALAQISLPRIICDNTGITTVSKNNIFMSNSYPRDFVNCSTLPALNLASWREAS
In words: Surface plasmon resonance (Biacore 3000) affinity on MPO. The format is binding. As to conditions: SPR at 25° C. The method, then: Using the surface plasmon resonance technology (Biacore 3000), the interaction constants between HCQ analogues (HCQa) and myeloperoxidase (MPO) targets and αB-crystalline (αB-C) were measured at 25° C. according to 12 different series of experiments. First, HCQ analogues at five different concentrations (10^−6 to 10^−8 M) were injected at a rate of 10^−6 L/min for 250 s on the MPO and αB-C targets as well as on the ERK1 and ERK2 controls, followed by a dissociation phase of 150 s.
The kinetic parameters were measured using the BIAevaluation 4.1 software. The set of resonance unit values obtained with the controls were subtracted from those obtained with MPO and αB-C to compensate for non-specific bonds.
The differences in Kd values for the myeloperoxidase (MPO) and αB-crystalline (αB-C) enzymes in Tables 1 and 2 are due to the variability of commercial batches. Nevertheless, the difference between the Kd of the compounds HCQ and CB137 remains identical according to these two tests.
Analysis of the compounds in the form of sulphate salts according to the method described above: […]

In assay [2] the test system is C57Bl/6 mice, pulmonary vasculitis induced by immune complexes. Briefly: Pulmonary vasculitis induced by immune complexes: histological analysis of lung sections. In kind it is in vivo. Conditions: per os before induction; HCQ 10 mg/kg, CB137 10, 30 or 100 mg/kg (FIG. 6). The protocol: Female C57Bl/6 strain mice from the Jackson Laboratory, 8-10 weeks old and weighing about 20 g, are used in all experiments. The mice are maintained at a temperature of 23° C.±1° C. with 12-hour light/dark cycle. Mice have access to water and food ad libitum and are housed at least one week before the beginning of any experiments.
A retro-orbital blood sampling was performed using capillaries containing heparin on mice anesthetized with isoflurane the day before the manipulation. The next day, the mice were anesthetized with a mixture of ketamine and xylasin (90 mg/kg and 125 mg/kg, respectively). The immune IgG complex is induced in the lungs by intratracheal instillation of 0.5 mg of anti-BSA rabbit antibody (MP Biomedicals, Strasbourg, France) and by the administration of 0.5 mg per mouse of BSA antigen in the caudal vein (Warner et al., 2001 and Warren et al., 1989). The specified treatment (PF-1355, CB137 or solvent alone) is administered enterally. The animals are euthanized 4 hours after intratracheal instillation. […]
The lung sections are examined under a light microscope (Axio LabA1 by Zeiss brand) to assess the intensity of the neutrophil influx and the level of hemorrhage, and to identify the structural alterations. A minimum of 10 fields at 400× magnification is analyzed per animal. […]

The mark [3] stands for this setting: Table 2, compounds in the form of sulphate salts.

On to `CCN(CCO)CCCC(C)Nc1c(Cl)cnc2cc(Cl)ccc12` (stereo not shown) [CB137], for which the “dermatitis (rate of mice having dermatitis)” value in assay [1] is on record as “less common”. The Kd at myeloperoxidase (MPO) (Table 1) is 6.59 nM; on myeloperoxidase (MPO) (setting [3]) it was 60 nM. Also, in assay [2], the “inhibition of pulmonary vasculitis / pulmonary inflammation induced by immune complexes (lung sections)” value is “inhibiting pulmonary vasculitis; also recorded: limits pulmonary inflammation”.
For `CCN(CCO)CCCC(C)Nc1ccnc2cc(Cl)ccc12` (stereo not shown) [Commercial HCQ, hydroxychloroquine], the Kd on myeloperoxidase (MPO) (Table 1) came out at 710 nM; on myeloperoxidase (MPO) (setting [3]) it was 4000 nM. Moreover, the “inhibition of pulmonary vasculitis / pulmonary inflammation induced by immune complexes (lung sections)” value in assay [2] was “inhibiting pulmonary vasculitis”.
